Source: patent US5874436A, “Triphenylalkyl antimicrobial agents” (priority 1997, dated 1999)
In brackets after ≈: the same amount, converted by molar mass.

Tests used:
Kinase A and Spo0F = molecular target: T1, Kinase A and Spo0F (Bacillus subtilis, UniProt P16497); test: Autophosphorylation of Kinase A and transphosphorylation of Spo0F assay (HPK in vitro assay); type: biochemical; conditions: inhibitor concentrations from 1 to 500 μM, [32P]ATP, phosphoimager
T1 construct: made in house; host or cells: E. coli (recombinant, overexpressing)
T1 sequence (P16497 1-606): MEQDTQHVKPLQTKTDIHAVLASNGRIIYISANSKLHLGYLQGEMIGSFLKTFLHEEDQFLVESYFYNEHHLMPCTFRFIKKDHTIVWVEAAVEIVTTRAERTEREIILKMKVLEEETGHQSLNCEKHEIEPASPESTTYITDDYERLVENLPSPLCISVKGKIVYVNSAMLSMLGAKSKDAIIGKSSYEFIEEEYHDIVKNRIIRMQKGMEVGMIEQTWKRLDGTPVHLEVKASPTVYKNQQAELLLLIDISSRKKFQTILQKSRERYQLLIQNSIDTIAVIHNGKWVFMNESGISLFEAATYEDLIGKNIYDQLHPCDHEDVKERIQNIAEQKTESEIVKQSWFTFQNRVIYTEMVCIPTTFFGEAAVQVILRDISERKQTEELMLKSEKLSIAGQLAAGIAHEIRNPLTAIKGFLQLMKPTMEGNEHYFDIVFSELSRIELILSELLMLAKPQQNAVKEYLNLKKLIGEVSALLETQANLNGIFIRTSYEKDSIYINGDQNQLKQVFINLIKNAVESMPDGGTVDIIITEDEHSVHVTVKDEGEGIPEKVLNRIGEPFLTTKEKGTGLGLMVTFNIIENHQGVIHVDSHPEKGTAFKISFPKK
Procedure: 1. Autophosphorylation of Kinase A and Transphosphorylation of Spo0F Assay
To study the effect of the compounds of the present invention on the signal transduction process in bacteria, the inhibiting effect of the compounds on the sporulation operon proteins Kinase A and Spo0F was examined. Specifically, the inhibition of autophosphorylation of Kinase A and the transphosphorylation of Spo0F was determined in the following assays. The Spo0F response regulator is the primary substrate for phosphorylation by the protein kinase, Kin A, involved in the sporulation process in bacteria. See D. Burbulys, K. A. Trach, J. A. Hoch, Cell, 64, 545-552 (1991). Spo0F and KinA were prepared from recombinant E. coli overexpressing the proteins (J. Cavanagh et al, Amino Acids, 6, 131-140 (1994) and references therein).
The following stock reagents were either prepared and used promptly or stored at the indicated temperature:
8 X Salts : 2M KCl (5 mL), 1M MgCl2 (800 mL), 1M CaCl2 (100 mL), 10 mg/mL phenylmethylsulfonyl fluoride (200 mL), 1 M dithioreitol (50 mL), 0.25M Na2 EDTA (32 mL) and H2 O mL (-20° C.)
5×Loading Dye: 0.5M TRIS-HCl-pH 6.8 (7.5 mL), 10% SDS (2 mL) 0.1% bromophenol blue (0.5 mL), 100% glycerol (3 mL) and 12.5 M 2-mercaptoethanol (0.3 mL)
1-1.3 mg/mL KinA:15 mM TRIS-HCl, pH 8.0, 6 mM KCl; 4 mM 2-mercaptoethanol; 40% glycerol (-20° C.)
1 mg/mL Spo0F: 17.5 mM TRIS-HCl, pH 8.0; 0.7 mM KCl; 0.7 mM MgCl2; 0.7 mM CaCl2; 5mM 2-mercaptoethanol; 30% Glycerol (-20° C.)
5% Stacking Gel: 40% 29:1 acrylamide:bis acrylamide (1.25 mL), 0.5M TRIS-HCl, pH 6.8 (2.5 mL), 10% SDS (0.1 mL), D-H2 O (6.15 mL) 10% ammonium persulfate (100 mL) and TEMED (25 mL) SDS Running Buffer: TRIS-BASE (3.02 g), glycine (14.4 g) SDS (1 g), D-H2 O (to 1L)
The reaction mixture was prepared from 8×Salts (87 μL), 1M TRIS, pH 8 (118 μL), 50% glycerol (63 μL), Spo0F (14.1 μL) and KinA (7.0 μL). Microcentrifuge tubes were charged with the reaction mixture (18.5 μL) and a 1.0 mM solution of the test compound in 5% DMSO (18.5 μL), and incubated for 15 min on ice. 100 mM ATP solution (3.0 μl, containing 625 μCi [^32 P]ATP) was added, and the mixture left for 10 minutes at room temperature. The reaction was quenched with 5×loading dye (10 μL per tube) and the samples were loaded on a prepared 5% Stacking Gel, or stored on dry ice until ready for use. The prepared wells were filled with SDS Running Buffer, samples were loaded into the wells, and 80 volts were applied to the gel until the dye front reached the bottom of the stacking gel. The voltage was then increased to 250 volts until electrophoresis was complete. Radioactive bands in the gel corresponding to phosphorylated KinA and Spo0F were imaged and quantitated with a phosphoimager.
If either enzyme was inhibited (as evidenced by the absence of labelled protein in the developed gel), an IC50 was calculated by running the assay with a range of inhibitor concentrations from 1 to 500 μM. After electrophoresis of the reaction mixtures, percent inhibition was determined by measuring the concentration of radioactive phosphorus with a phosphoimager and calculating the values using a software program (BioRad Molecular Analyst).

selected microorganisms = test: MIC antimicrobial assay (NCCLS microdilution broth method); type: cell-based
Procedure: 2. MIC Anitimicrobial Assay
The in vitro antimicrobial activity of the compounds was determined by the microdilution broth method following the test method from the National Committee for Laboratory Standards (NCCLS). This method is described in the NCCLS Document M7-A2, Vol.10, No.8 "Methods for Dilution Antimicrobial Susceptibility Test for Bacteria that Grow Aerobically--Second Edition."
In this method two-fold serial dilutions of drug in cation supplemented Mueller-Hinton broth are added to wells in microdilution trays. The test organisms are prepared by adjusting the turbidity of actively growing broth cultures so that the final concentration of test organism after it is added to the wells is approximately 5×10^4 CFUs/well).
Following inoculation of the microdilution trays, the trays are incubated at 35° C. for 16-20 hours and then read. […] The amount of growth in the wells containing the test compound is compared with the amount of growth in the growth-control wells (no test compound) used in each tray.

SMILES	IC50 (Kinase A and Spo0F) [µM]	MIC (selected microorganisms) [µg/mL]
NCc1ccc2cc(OCCC(c3ccccc3)(c3ccccc3)c3ccccc3)ccc2c1 [Example 20, 6-(3,3,3-Triphenylpropoxy)-2-naphthylmethylamine]	75	4 to 8 (≈ 9.02 to 18 µM)
O=C(O)/C=C/c1ccc(OCCC(c2ccccc2)(c2ccccc2)c2ccccc2)cc1 [Example 22, trans 4-(3,3,3-Triphenylpropoxy)cinnamic acid]	71	4 to 64 (≈ 9.21 to 147 µM)
O=C(Cc1ccc(O)cc1)OCCC(c1ccccc1)(c1ccccc1)c1ccccc1 [Example 23, 3,3,3-Triphenylpropyl 2-(4-hydroxyphenyl)acetate]	170	> 128
O=C(CCc1ccc(O)cc1)OCCC(c1ccccc1)(c1ccccc1)c1ccccc1 [Example 24, 3,3,3-Triphenylpropyl 3-(4-hydroxyphenyl)propionate]	160	> 128
O=C(/C=C/c1ccc(OCCC(c2ccccc2)(c2ccccc2)c2ccccc2)cc1)NCCO [Example 25, trans N-(2-Hydroxyethyl)-4-(3,3,3-triphenylpropoxy)-cinnamide]	150	> 128
c1ccc(C(CCOc2ccc(CCC3=NCCCO3)cc2)(c2ccccc2)c2ccccc2)cc1 [Example 26, 4,5-Dihydro-2-{2-[4-(3,3,3-triphenylpropoxy)-phenyl}ethyl}-1,3-oxazine]	43	8 to 16 (≈ 16.8 to 33.6 µM)
c1ccc(C(CCOc2ccc(CCc3nnn[nH]3)cc2)(c2ccccc2)c2ccccc2)cc1 [Example 27, 5-{2-[4-(3,3,3-Triphenylpropoxy)phenyl]ethyl}-1H-tetrazole]	11	8 to 64 (≈ 17.4 to 139 µM)
C[N+](C)(Cc1ccccc1)Cc1ccc(OCCC(c2ccccc2)(c2ccccc2)c2ccccc2)cc1.[Cl-] [Example 28, N-Benzyl-N,N-dimethyl-[4-(3,3,3-triphenylpropoxy)-phenyl]methyl ammonium chloride]	13	2
[Cl-].c1ccc(C(CCOc2ccc(C[n+]3ccccc3)cc2)(c2ccccc2)c2ccccc2)cc1 [Example 29, 1-{[4-(3,3,3-triphenylpropoxy)-phenyl]methyl}pyridinium chloride]	6	2 to 4
Cc1n(C)cc[n+]1Cc1ccc(OCCC(c2ccccc2)(c2ccccc2)c2ccccc2)cc1.[Cl-] [Example 30, 1,2-Dimethyl-3-{[4-(3,3,3-triphenylpropoxy)-phenyl]methyl}imidazolium chloride]	28	2 to 8
O=C(O)C(=Cc1ccc(OCCC(c2ccccc2)(c2ccccc2)c2ccccc2)cc1)C(=O)O [Example 31, [4-(3,3,3-Triphenylpropoxy)benzylidene]malonic acid]	54	> 128
c1ccc(C(CCOc2ccc(Cc3nnn[nH]3)cc2)(c2ccccc2)c2ccccc2)cc1 [Example 32, 5-[4-(3,3,3-Triphenylpropoxy)phenyl]methyl-1H-tetrazole]	19	8 to 64 (≈ 17.9 to 143 µM)
C[N+](C)(C)Cc1ccc(OCCC(c2ccccc2)(c2ccccc2)c2ccccc2)cc1.[Cl-] [Example 33, N,N,N-Trimethyl-[4-(3,3,3-triphenylpropoxy)phenyl]methylammonium chloride]	29	4 to 8
O=C(O)Cc1cccc(OCCC(c2ccccc2)(c2ccccc2)c2ccccc2)c1 [Example 34, 2-[3-(3,3,3-Triphenylpropoxy)phenyl]acetic acid]	38	32 (≈ 75.7 µM)
O=C(O)CCc1cccc(OCCC(c2ccccc2)(c2ccccc2)c2ccccc2)c1 [Example 35, 3-[3-(3,3,3-Triphenylpropoxy)phenyl]propionic acid]	42	4 to 128 (≈ 9.16 to 293 µM)
O=C(O)Cc1ccccc1OCCC(c1ccccc1)(c1ccccc1)c1ccccc1 [Example 36, 2-(3,3,3-Triphenylpropoxy)phenylacetic acid]	45	16 to 32 (≈ 37.9 to 75.7 µM)
